Laboratory results taken from patent US9918990B2, “Substituted pyrrolo[2,3-c]pyridines and pyrazolo[3,4-c]pyridines as BET protein inhibitors” (Incyte Corporation, priority 2013, dated 2018).

How the values were obtained:
BRD4-BD2 = BRD4-BD2 (Homo sapiens (Human), UniProt O60885); assay: BRD4 AlphaScreen assay, BRD4-BD2; format: binding; details: H4Ac4 peptide, 75 min, room temperature, read-out: BRD4 BD-2 enzyme IC50
In short: (§1)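 AlphaScreen read after 75 min dark incubation at room temperature, inhibitors serially diluted in DMSO and added before other components. IC50 from fit of percent control activity versus log inhibitor concentration.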

KMS.12.BM cells = assay: KMS.12.BM cell viability assay (Cell Titer-GLO, ATP quantitation); format: cell-based; details: Homo sapiens, 72 h, 3 days, concentration required for 50% cell death, read-out: KMS cellular IC50
In short: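 Human myeloma KMS.12.BM cells, 5000 cells/well in RPMI with 10% FBS, were exposed to a compound concentration range for 3 days. Viability was read by Cell Titer-GLO ATP luminescence relative to untreated cells; IC50 is the concentration giving 50% cell death.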

BRD4-BD1 = BRD4-BD1 (Homo sapiens (Human), UniProt O60885); assay: BRD4 AlphaScreen assay, BRD4-BD1; format: binding; details: H4Ac4 peptide, 75 min, room temperature, read-out: BRD4 BD-1 enzyme IC50
In short: as §1

C-myc = assay: KMS.12.BM C-myc ELISA assay; format: cell-based; details: Homo sapiens; KMS.12.BM cells, 2 hours, concentration required for 50% C-myc inhibition
Method: KMS.12.BM cell line (human myeloma) was purchased from JCRB (Osaka, Japan) and maintained in RPMI with 10% FBS culture medium. To measure the C-myc inhibitory activity of the compounds, the KMS.12.BM cells are plated in the RPMI culture medium at 75000 cells/well/per 200 μL into a 96-well flat bottom polystyrene tissue culture plate (Corning through VWR, NJ), in the presence or absence of a concentration range of test compounds. After 2 hours, cell are pelleted and lysed with Cell Extraction Buffer (BioSource, Carlsbad, Calif.) in the presence of protease inhibitors (Life Technologies, Grand Island, N.Y. and Sigma, St Louis, Mo.). Clarified lyses are tested in a C-myc commercial ELISA (Life Technologies, Grand Island, N.Y.). Compound inhibition is determined relative to cells cultured with no drug and the IC50 is reported as the compound concentration required for 50% C-myc inhibition. IC50 data for the Examples is presented in Table 10 as determined by Assay C1.

IC50 (BRD4-BD2)	IC50 (BRD4-BD1)	IC50 (C-myc)	SMILES	IC50 (KMS.12.BM cells)
< 100 nM	< 100 nM	≤ 1000 nM	Cn1cc(-c2ccc3c([nH]c(=O)n3C)c2Oc2ccc(F)cc2F)c2cc[nH]c2c1=O [Example 6, 4-(2,4-Difluorophenoxy)-1-methyl-5-(6-methyl-7-oxo-6,7-dihydro-1H-pyrrolo[2,3-c]pyridin-4-yl)-1,3-dihydro-2H-benzimidazol-2-one]	≤ 1000 nM
< 100 nM	< 100 nM	≤ 1000 nM	Cn1cc(-c2ccc3[nH]c(=O)[nH]c3c2OCC2CC2)c2cc[nH]c2c1=O [Example 11, 4-(Cyclopropylmethoxy)-5-(6-methyl-7-oxo-6,7-dihydro-1H-pyrrolo[2,3-c]pyridin-4-yl)-1,3-dihydro-2H-benzimidazol-2-one]	≤ 1000 nM
< 100 nM	< 100 nM	≤ 1000 nM	Cc1nc2c(Oc3ccc(F)cc3F)c(-c3cn(C)c(=O)c4[nH]ncc34)ccc2n1C [Example 19, 4-[4-(2,4-Difluorophenoxy)-1,2-dimethyl-1H-benzimidazol-5-yl]-6-methyl-1,6-dihydro-7H-pyrazolo[3,4-c]pyridin-7-one]	≤ 1000 nM
< 100 nM	< 100 nM	≤ 1000 nM	CN(C)C(=O)Cn1cnc2c(Oc3ccc(F)cc3F)c(-c3cn(C)c(=O)c4[nH]ccc34)ccc21 [Example 34, 2-[4-(2,4-difluorophenoxy)-5-(6-methyl-7-oxo-6,7-dihydro-1H-pyrrolo[2,3-c]pyridin-4-yl)-1H-benzimidazol-1-yl]-N,N-dimethylacetamide]	≤ 1000 nM
< 100 nM	< 100 nM	≤ 1000 nM	Cn1cc(-c2ccc3oc(CNC(=O)C4CC4)nc3c2Oc2ccccc2)c2cc[nH]c2c1=O [Example 108, N-{[5-(6-Methyl-7-oxo-6,7-dihydro-1H-pyrrolo[2,3-c]pyridin-4-yl)-4-phenoxy-1,3-benzoxazol-2-yl]methyl}cyclopropanecarboxamide]	≤ 1000 nM
< 100 nM	< 100 nM	≤ 1000 nM	CC(=O)NCc1nc2c(Oc3ccccc3)c(-c3cn(C)c(=O)c4[nH]ccc34)ccc2o1 [Example 104, N-{[5-(6-Methyl-7-oxo-6,7-dihydro-1H-pyrrolo[2,3-c]pyridin-4-yl)-4-phenoxy-1,3-benzoxazol-2-yl]methyl}acetamide]	≤ 1000 nM
< 100 nM	< 100 nM	≤ 1000 nM	Cn1cc(-c2ccc3c([nH]c(=O)n3C)c2Oc2ccccc2F)c2cc[nH]c2c1=O [Example 39, 4-(2-Fluorophenoxy)-1-methyl-5-(6-methyl-7-oxo-6,7-dihydro-1H-pyrrolo[2,3-c]pyridin-4-yl)-1,3-dihydro-2H-benzimidazol-2-one]	≤ 1000 nM
< 100 nM	< 100 nM	≤ 1000 nM	Cn1cc(-c2ccc3c(c2OCC2CCC2)n(CCC#N)c(=O)n3C)c2cc[nH]c2c1=O [Example 62, 3-[7-(Cyclobutylmethoxy)-3-methyl-6-(6-methyl-7-oxo-6,7-dihydro-1H-pyrrolo[2,3-c]pyridin-4-yl)-2-oxo-2,3-dihydro-1H-benzimidazol-1-yl]propanenitrile]	≤ 1000 nM
< 100 nM	< 100 nM	≤ 1000 nM	Cn1cc(-c2ccc3c([nH]c(=O)n3C)c2OC2CCCCC2)c2cc[nH]c2c1=O [Example 90, 4-(Cyclohexyloxy)-1-methyl-5-(6-methyl-7-oxo-6,7-dihydro-1H-pyrrolo[2,3-c]pyridin-4-yl)-1,3-dihydro-2H-benzimidazol-2-one]	≤ 1000 nM
< 100 nM	< 100 nM	≤ 1000 nM	Cn1cc(-c2ccc3c([nH]c(=O)n3C)c2Oc2ccc(F)cc2)c2cc[nH]c2c1=O [Example 41, 4-(4-Fluorophenoxy)-1-methyl-5-(6-methyl-7-oxo-6,7-dihydro-1H-pyrrolo[2,3-c]pyridin-4-yl)-1,3-dihydro-2H-benzimidazol-2-one]	≤ 1000 nM
< 100 nM	< 100 nM	≤ 1000 nM	Cn1cc(-c2ccc3c(nnn3C)c2Oc2ccc(F)cc2F)c2cn[nH]c2c1=O [Example 20, 4-[4-(2,4-Difluorophenoxy)-1-methyl-1H-1,2,3-benzotriazol-5-yl]-6-methyl-1,6-dihydro-7H-pyrazolo[3,4-c]pyridin-7-one]	≤ 1000 nM
< 100 nM	< 100 nM	≤ 1000 nM	Cn1cc(-c2ccc3c(ncn3C)c2Oc2ccccc2)c2cc[nH]c2c1=O [Example 56, 6-Methyl-4-(1-methyl-4-phenoxy-1H-benzimidazol-5-yl)-1,6-dihydro-7H-pyrrolo[2,3-c]pyridin-7-one]	≤ 1000 nM
< 100 nM	< 100 nM	≤ 1000 nM	Cn1cc(-c2ccc3ncn(CCc4ccccc4)c3c2Oc2ccccc2)c2cc[nH]c2c1=O [Example 47, 6-Methyl-4-[7-phenoxy-1-(2-phenylethyl)-1H-benzimidazol-6-yl]-1,6-dihydro-7H-pyrrolo[2,3-c]pyridin-7-one]	≤ 1000 nM
< 100 nM	100 to 1000 nM	≤ 1000 nM	Cn1cc(-c2ccc3c([nH]c(=O)n3C)c2OCc2ccccc2)c2cc[nH]c2c1=O [Example 27, 4-(Benzyloxy)-1-methyl-5-(6-methyl-7-oxo-6,7-dihydro-1H-pyrrolo[2,3-c]pyridin-4-yl)-1,3-dihydro-2H-benzimidazol-2-one]	≤ 1000 nM
< 100 nM	< 100 nM	≤ 1000 nM	Cn1cc(-c2ccc3c([nH]c(=O)n3C)c2OC2CCOCC2)c2cc[nH]c2c1=O [Example 29, 1-Methyl-5-(6-methyl-7-oxo-6,7-dihydro-1H-pyrrolo[2,3-c]pyridin-4-yl)-4-(tetrahydro-2H-pyran-4-yloxy)-1,3-dihydro-2H-benzimidazol-2-one]	≤ 1000 nM
< 100 nM	< 100 nM	≤ 1000 nM	Cn1cc(-c2ccc3[nH]c(=O)[nH]c3c2Oc2ccc(F)cc2F)c2cc[nH]c2c1=O [Example 1, 4-(2,4-Difluorophenoxy)-5-(6-methyl-7-oxo-6,7-dihydro-1H-pyrrolo[2,3-c]pyridin-4-yl)-1,3-dihydro-2H-benzimidazol-2-one]	≤ 1000 nM
< 100 nM	< 100 nM	≤ 1000 nM	Cn1cc(-c2ccc3c(ncn3Cc3ccccc3)c2Oc2ccccc2)c2cc[nH]c2c1=O [Example 46, 4-(1-Benzyl-4-phenoxy-1H-benzimidazol-5-yl)-6-methyl-1,6-dihydro-7H-pyrrolo[2,3-c]pyridin-7-one]	≤ 1000 nM
< 100 nM	< 100 nM	≤ 1000 nM	CN1CCN(CCn2c(=O)n(C)c3ccc(-c4cn(C)c(=O)c5[nH]ccc45)c(OCC4CCC4)c32)CC1 [Example 68, 4-(Cyclobutylmethoxy)-1-methyl-5-(6-methyl-7-oxo-6,7-dihydro-1H-pyrrolo[2,3-c]pyridin-4-yl)-3-[2-(4-methylpiperazin-1-yl)ethyl]-1,3-dihydro-2H-benzimidazol-2-one]	≤ 1000 nM
< 100 nM	< 100 nM	≤ 1000 nM	Cn1cc(-c2ccc3[nH]c(=O)[nH]c3c2OC2CCCOC2)c2cc[nH]c2c1=O (stereo not shown) [Example 26, 5-(6-Methyl-7-oxo-6,7-dihydro-1H-pyrrolo[2,3-c]pyridin-4-yl)-4-(tetrahydro-2H-pyran-3-yloxy)-1,3-dihydro-2H-benzimidazol-2-one]	≤ 1000 nM
